Source: the supplement of paper PMC10307832

What was measured:
Experiment in all cases: relative viability (nuclei count vs DMSO), 5 days (fraction); higher = more cells survive
Nelarabine + Decitabine = compound: COc1nc(N)nc2c1ncn2[C@@H]1O[C@H](CO)[C@@H](O)[C@@H]1O [Nelarabine] + Nc1ncn([C@H]2C[C@H](O)[C@@H](CO)O2)c(=O)n1 [Decitabine] (partner 2 µM)
Procedure, shortened: (§1)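 Cells from lung cancer lines were seeded into 1536-well plates and, one day later, dosed by pin tool. Treatments were either a single drug or a fixed dose of an anchor drug with five library-drug doses (not always all listed) in √10 steps. After 5 days, nuclei were stained in a one-step fixation (final 0.05% Triton X-100, 1% formaldehyde, 1 ug/ml Hoechst) and counted on 4× images, and relative viability is the treated-to-vehicle nuclei ratio, as the median of duplicate plates.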

Nelarabine + Pictilisib = compound: COc1nc(N)nc2c1ncn2[C@@H]1O[C@H](CO)[C@@H](O)[C@@H]1O [Nelarabine] + CS(=O)(=O)N1CCN(Cc2cc3nc(-c4cccc5[nH]ncc45)nc(N4CCOCC4)c3s2)CC1 [Pictilisib] (partner 1 µM)
Procedure, shortened: as §1

Adavosertib + Olaparib = compound: C=CCn1c(=O)c2cnc(Nc3ccc(N4CCN(C)CC4)cc3)nc2n1-c1cccc(C(C)(C)O)n1 [Adavosertib] + O=C(c1cc(Cc2n[nH]c(=O)c3ccccc23)ccc1F)N1CCN(C(=O)C2CC2)CC1 [Olaparib] (partner 8 µM)
Procedure, shortened: as §1

Nelarabine + AZD7762 = compound: COc1nc(N)nc2c1ncn2[C@@H]1O[C@H](CO)[C@@H](O)[C@@H]1O [Nelarabine] + NC(=O)Nc1cc(-c2cccc(F)c2)sc1C(=O)N[C@H]1CCCNC1 [AZD7762] (partner 0.2 µM)
Procedure, shortened: as §1

Cell Line | relative viability (Nelarabine + Decitabine; first compound 0.01 µM) | relative viability (Nelarabine + Decitabine; first compound 0.03162 µM) | relative viability (Nelarabine + Decitabine; first compound 0.1 µM) | relative viability (Nelarabine + Decitabine; first compound 0.3162 µM) | relative viability (Nelarabine + Decitabine; first compound 1 µM) | relative viability (Nelarabine + Pictilisib; first compound 0.01 µM) | relative viability (Nelarabine + Pictilisib; first compound 0.03162 µM) | relative viability (Nelarabine + Pictilisib; first compound 0.1 µM) | relative viability (Nelarabine + Pictilisib; first compound 0.3162 µM) | relative viability (Nelarabine + Pictilisib; first compound 1 µM) | relative viability (Adavosertib + Olaparib; first compound 0.01 µM) | relative viability (Adavosertib + Olaparib; first compound 0.03162 µM) | relative viability (Adavosertib + Olaparib; first compound 0.1 µM) | relative viability (Adavosertib + Olaparib; first compound 0.3162 µM) | relative viability (Nelarabine + AZD7762; first compound 0.01 µM) | relative viability (Nelarabine + AZD7762; first compound 0.03162 µM) | relative viability (Nelarabine + AZD7762; first compound 0.1 µM) | relative viability (Nelarabine + AZD7762; first compound 0.3162 µM) | relative viability (Nelarabine + AZD7762; first compound 1 µM)
PC-14 | 0.225 | 0.231 | 0.202 | 0.219 | 0.224 | 1.17 | 0.759 | 0.563 | 0.815 | 0.653 | 0.44 | 0.211 | 0.176 | 0.0727 | 0.382 | 0.319 | 0.447 | 0.417 | 0.304
RERF-LC-KJ | 0.764 | 0.639 | 0.705 | 0.699 | 0.711 | 0.582 | 0.652 | 0.559 | 0.578 | 0.422 | 0.952 | 0.986 | 1.05 | 0.955 | 0.993 | 1.11 | 1.02 | 1.15 | 1.08
